Source: US20190367516A1 (Bayer Pharma Aktiengesellschaft, priority 2015, published 2019)
Where two headings read alike, the source gives them in different places.

Key:
[1] = target: T1, human M2 receptor (Homo sapiens, UniProt P08172); assay type: cell-based; conditions: α >1 = positive cooperativity
T1 sequence (P08172 1-466): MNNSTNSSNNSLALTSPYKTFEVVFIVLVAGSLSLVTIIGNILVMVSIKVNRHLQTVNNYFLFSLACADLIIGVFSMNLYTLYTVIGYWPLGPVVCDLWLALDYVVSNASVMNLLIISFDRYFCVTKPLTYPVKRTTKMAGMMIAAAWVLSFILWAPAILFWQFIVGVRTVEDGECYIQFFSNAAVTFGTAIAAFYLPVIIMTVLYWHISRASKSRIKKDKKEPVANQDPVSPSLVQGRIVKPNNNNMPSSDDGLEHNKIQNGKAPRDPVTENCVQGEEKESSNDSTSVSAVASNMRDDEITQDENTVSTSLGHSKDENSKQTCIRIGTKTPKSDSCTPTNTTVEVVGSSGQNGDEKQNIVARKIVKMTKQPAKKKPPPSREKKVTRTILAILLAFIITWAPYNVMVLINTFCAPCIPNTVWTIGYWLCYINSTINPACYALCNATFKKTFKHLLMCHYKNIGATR

[2] = target: T2, Human Recombinant M2 Muscarinic Acetylcholine Receptor (Homo sapiens, UniProt P08172); test: Selectivity test, Ca2+ release (Eurofins GPCRProfiler): allosteric modulator assay, M2 (B-3.2); assay type: cell-based; conditions: for Selectivity (Shift EC50 M2/Shift EC50 M4): Table 2, quotient of allosteric shifts M2/M4; for Selectivity (Shift EC50 M2/Shift EC50 M1): Table 3, quotient of allosteric shifts M2/M1
T2 sequence (P08172 1-466): T1 sequence (P08172 1-466)
Method: B-3. Selectivity Test with Respect to Human Muscarinic Acetylcholine Receptors
Any potentially agonistic effect, or else positive allosteric effect, of the test substances on other human muscarinic acetylcholine receptors can be determined in a functional Ca^2+ release test (Eurofins; GPCRProfiler® Services in agonistic and allosteric mode for Mx Receptors; cat#: HTS600GPCR).
The substance test is conducted with a FLIPR^TETRA instrument (Molecular Devices).
After the agonism assay has ended, the assay plate is incubated at 25° C. for 7 min. After the incubation period, the positive allosteric modulator assay is initialized.
B-3.2. Allosteric Modulator Assay
In order to examine any positive or negative allosteric effect of the test substances on other human muscarinic acetylcholine receptors and the M2 receptor itself, every substance concentration is combined with an acetylcholine 8-point dose-response curve. Addition of agonist solution is again followed in turn by the measurement of cell fluorescence for a period of 180 sec. The shift in the acetylcholine dose-response curve (maximum shift in the EC50 of acetylcholine) is analysed and quantified by means of GraphPad PRISM (Sigmoidal dose-response (variable slope)−EC50). Finally, quotients of the allosteric shift for the M2 receptor and M4 receptor are formed, which function in turn as a measure of the respective selectivity.

[3] = tested on: anaesthetized rats; test: Effects on the heart rate in anaesthetized rats (B-9); assay type: in vivo, rat; conditions: i.v. infusion via jugular vein over 5 min, dose not given, in some cases means of several determinations
Method: B-9. Effects of the Test Substances on the Heart Rate in Anaesthetized Rats
Male rats of the strain (WI) WU Br from the breeder Charles River are anaesthetized initially with a 4-5% isoflurane inhalation for approx. 3 min. Subsequently, anaesthesia is maintained using a 1.5% isoflurane inhalation. For this purpose, the anaesthetized animals are fixed on a heated operating plate. By means of visual inspection and between toe reflex, the depth of anaesthesia is checked.
For the application of the test substance, an i.v. route into the jugular vein is used. A caudal to cranial skin incision is then made longitudinally and both the cervical musculature and the salivary glands are severed. The right common carotid artery is exposed and blood supply is arrested both proximally and distally. Using microinstrumentation, a TIP catheter (1.2 F) is introduced into the vessel in order to measure the arterial pressure and the heart rate.
Initially, both parameters are monitored for 10 min in the basal state without substance addition. The substances to be investigated are dissolved in suitable solvent mixtures and subsequently administered at various dosages to a group of animals in each case via the jugular vein by an infusion pump over 5 min. A solvent-treated group is used as control under the same experimental conditions. The arterial blood pressure and heart rate with substance addition is determined for 20 min. The data are registered with the PowerLab system (AD instruments) and evaluated using the LabChart program (AD instruments).
The values determined in this manner for the percentage decrease in heart rate for individual working examples are given in Table 4 below (in some cases as means of a plurality of independent individual determinations): […]

[4] = target: T1, human M2 receptor
[5] = shift in the acetylcholine dose-response curve (Allosteric EC50 shift, GraphPad PRISM)
[6] = test substance concentration 1 μM
[7] = test substance concentration 10 μM
[8] = Receptor activity EC50, M2-GIRK1/4 activation test, acetylcholine at EC20, allosteric potency, in some cases mean values from two or more determinations
[9] = shift of acetylcholine dose-response curve (Allosteric EC50 shift)
[10] = Receptor activity EC50, allosteric potency at EC20 acetylcholine, M2-GIRK1/4 reporter cells, in some cases mean of two or more determinations
[11] = read-out: Efficiency, boosting of the acetylcholine effect at EC20 acetylcholine concentration, M2-GIRK1/4 reporter cells

Cooperativity (alpha factor) [1, 5]	EC50 [4, 8] [nM]	Cooperativity (alpha factor) [1, 9]	EC50 [4, 10] [nM]	Emax [4, 11] [%]	SMILES	Selectivity (Shift EC50 M2/Shift EC50 M4) [2, 6]	Selectivity (Shift EC50 M2/Shift EC50 M4) [2, 7]	Selectivity (Shift EC50 M2/Shift EC50 M1) [2, 7]	Reduction in heart rate (%) [3] [%]	Emax ([4]; read-out: Efficiency) [%]
16	14				O=C(N[C@@H](C1CC1)C(F)(F)F)c1cn(-c2c(F)cc(F)cc2F)c2nc(N3CCNC3=O)ccc2c1=O [Example 323, N-[(1 S)-1-Cyclopropyl-2,2,2-trifluoroethyl]-4-oxo-7-(2-oxoimidazolidin-1-yl)-1-(2,4,6-trifluorophenyl)-1,4-dihydro-1,8-naphthyridine-3-carboxamide]	52	44	31	13	
13	11				O=C(N[C@H](C1CC1)C(F)(F)F)c1cn(-c2c(F)cc(F)cc2F)c2nc(N3CCNC3=O)ccc2c1=O [Example 342, N-[(1R)-1-Cyclopropyl-2,2,2-trifluoroethyl]-4-oxo-7-(2-oxoimidazolidin-1-yl)-1-(2,4,6-trifluorophenyl)-1,4-dihydro-1,8-naphthyridine-3-carboxamide]				10	
32	14				CC(C)(CC(F)(F)F)NC(=O)c1cn(-c2c(F)cc(F)cc2F)c2nc(N3C[C@@H](O)[C@H](O)C3)ccc2c1=O [Example 370, 7-[(3R,4R)-3,4-Dihydroxypyrrolidin-1-yl]-4-oxo-N-(4,4,4-trifluoro-2-methylbutan-2-yl)-1-(2,4,6-trifluorophenyl)-1,4-dihydro-1,8-naphthyridine-3-carboxamide]				12	
39	9				O=C(N[C@H](C1CC1)C(F)(F)F)c1cn(-c2c(F)cc(F)cc2F)c2nc(N3C[C@@H](O)CC3=O)ccc2c1=O [Example 386, N-[(1R)-1-Cyclopropyl-2,2,2-trifluoroethyl]-7-[(4S)-4-hydroxy-2-oxopyrrolidin-1-yl]-4-oxo-1-(2,4,6-trifluorophenyl)-1,4-dihydro-1,8-naphthyridine-3-carboxamide]				13	
		35	7	98.3	O=C(N[C@@H](C1CC1)C(F)(F)F)c1cn(-c2c(F)cc(F)cc2F)c2nc(N3C[C@@H](O)CC3=O)ccc2c1=O [Example 404, N-[(1 S)-1-Cyclopropyl-2,2,2-trifluoroethyl]-7-[(4S)-4-hydroxy-2-oxopyrrolidin-1-yl]-4-oxo-1-(2,4,6-trifluorophenyl)-1,4-dihydro-1,8-naphthyridine-3-carboxamide]				9	
		32	7	98.5	CC[C@@H](NC(=O)c1cn(-c2c(F)cc(F)cc2Cl)c2nc(N3C[C@@H](O)CC3=O)ccc2c1=O)C(F)(F)F [Example 407, 1-(2-Chloro-4,6-difluorophenyl)-7-[(4S)-4-hydroxy-2-oxopyrrolidin-1-yl]-4-oxo-N-[(2R)-1,1,1-trifluorobutan-2-yl]-1,4-dihydro-1,8-naphthyridine-3-carboxamide]				13	
		40	9	100	O=C(N[C@H](C1CC1)C(F)(F)F)c1cn(-c2c(F)cc(F)cc2Cl)c2nc(N3C[C@@H](O)CC3=O)ccc2c1=O [Example 414, 1-(2-Chloro-4,6-difluorophenyl)-N-[(1R)-1-cyclopropyl-2,2,2-trifluoroethyl]-7-[(4S)-4-hydroxy-2-oxopyrrolidin-1-yl]-4-oxo-1,4-dihydro-1,8-naphthyridine-3-carboxamide]				16	
		30	9	100	CC(C)(CC(F)(F)F)NC(=O)c1cn(-c2c(F)cc(F)cc2F)c2nc(N3C[C@@H](O)CC3=O)ccc2c1=O [Example 511, 7-[(4S)-4-Hydroxy-2-oxopyrrolidin-1-yl]-4-oxo-N-(4,4,4-trifluoro-2-methylbutan-2-yl)-1-(2,4,6-trifluorophenyl)-1,4-dihydro-1,8-naphthyridine-3-carboxamide]				10	

SMILES	Cooperativity (alpha factor) [1, 5]	EC50 [4, 8] [nM]	Cooperativity (alpha factor) [1, 9]	EC50 [4, 10] [nM]	Emax [4, 11] [%]	Selectivity (Shift EC50 M2/Shift EC50 M4) [2, 6]	Selectivity (Shift EC50 M2/Shift EC50 M4) [2, 7]	Selectivity (Shift EC50 M2/Shift EC50 M1) [2, 7]	Reduction in heart rate (%) [3] [%]	Emax ([4]; read-out: Efficiency) [%]
CC[C@@H](NC(=O)c1cn(-c2ccc(F)cc2F)c2nc(N3C[C@@H](O)CC3=O)ccc2c1=O)C(F)(F)F [Example 175]	33	69				29	83	287	6	97.3
CC[C@H](NC(=O)c1cn(-c2c(F)cc(F)cc2F)c2nc(N3C[C@@H](O)CC3=O)ccc2c1=O)C(F)(F)F [Example 332, 7-[(4S)-4-Hydroxy-2-oxopyrrolidin-1-yl]-4-oxo-N-[(2S)-1,1,1-trifluorobutan-2-yl]-1-(2,4,6-trifluorophenyl)-1,4-dihydro-1,8-naphthyridine-3-carboxamide]	37	20							11	99.2
CC(C)(C)[C@@H](NC(=O)c1cn(-c2c(F)cc(F)cc2F)c2nc(N3C[C@@H](O)[C@H](O)C3)ccc2c1=O)C(F)(F)F [Example 349, 7-[(3R,4R)-3,4-Dihydroxypyrrolidin-1-yl]-4-oxo-N-[(2R)-1,1,1-trifluoro-3,3-dimethylbutan-2-yl]-1-(2,4,6-trifluorophenyl)-1,4-dihydro-1,8-naphthyridine-3-carboxamide]	52	4							14	100
O=C(N[C@@H](C1CC1)C(F)(F)F)c1cn(-c2c(F)cc(F)cc2F)c2nc(N3C[C@@H](O)[C@H](O)C3)ccc2c1=O [Example 590, N-[(1S)-1-Cyclopropyl-2,2,2-trifluoroethyl]-7-[(3R,4R)-3,4-dihydroxypyrrolidin-1-yl]-4-oxo-1-(2,4,6-trifluorophenyl)-1,4-dihydro-1,8-naphthyridine-3-carboxamide]			43	15		7	33	30	13	100
